Source: patent publication US10131652B2, “Pyrimidinyloxy benzene derivatives as herbicides” (E. I. DU PONT DE NEMOURS AND COMPANY, priority 2014, dated 2018)

Key:
Type in all cases: in vivo
[1] = test system: wheat (Triticum aestivum); experiment: Test B pre-/postemergence plant response
Method in brief: (§1)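 Ratings reflect visual injury versus untreated controls, from 0 for no effect to 100 for complete control, assessed roughly 10 days after treatment. Formulation: non-phytotoxic solvent mix with surfactant; pre- and postemergence sprays on plants grown in loam soil and sand.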

[2] = test system: barnyardgrass (Echinochloa crus-galli); experiment: Test B pre-/postemergence plant response
Method in brief: as §1

[3] = test system: large (Lg) crabgrass (Digitaria sanguinalis); experiment: Test B pre-/postemergence plant response
Method in brief: as §1

[4] = test system: giant foxtail (Setaria faberii); experiment: Test B pre-/postemergence plant response
Method in brief: as §1

[5] = test system: morningglory (Ipomoea spp.); experiment: Test B pre-/postemergence plant response
Method in brief: as §1

[6] = test system: pigweed (Amaranthus retroflexus); experiment: Test B pre-/postemergence plant response
Method in brief: as §1

corn (Zea mays) = experiment: Test B pre-/postemergence plant response
Method in brief: as §1

[7] = test system: velvetleaf (Abutilon theophrasti); experiment: Test B pre-/postemergence plant response
Method in brief: as §1

[8] = test system: ducksalad (Heteranthera limosa); experiment: Test C flooded paddy test plant response; conditions: Flood, 250 g ai/ha; scale of 0 to 100 where 0 is no effect and 100 is complete control; 13 to 15 days
Method in brief: (§2)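 Two-leaf stage → flood to 3 cm → compound into water → hold depth, greenhouse 13–15 d → visual score vs controls (0 none, 100 complete control).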

[9] = test system: barnyardgrass (Echinochloa crus-galli); experiment: Test C flooded paddy test plant response; conditions: Flood, 250 g ai/ha; scale of 0 to 100 where 0 is no effect and 100 is complete control; 13 to 15 days
Method in brief: as §2

rice (Oryza sativa) = experiment: Test C flooded paddy test plant response; conditions: Flood, 250 g ai/ha; scale of 0 to 100 where 0 is no effect and 100 is complete control; 13 to 15 days
Method in brief: as §2

[10] = test system: small-flower umbrella sedge (Cyperus difformis); experiment: Test C flooded paddy test plant response; conditions: Flood, 250 g ai/ha; scale of 0 to 100 where 0 is no effect and 100 is complete control; 13 to 15 days
Method in brief: as §2

[11] = 125 g ai/ha, postemergence, 0 to 100 scale, 0 no effect, 100 complete control
[12] = Postemergence, 500 g ai/ha, 0 to 100 scale (0 no effect, 100 complete control)
[13] = Preemergence, 125 g ai/ha, 0 to 100 scale where 0 is no effect and 100 is complete control
[14] = Preemergence, 500 g ai/ha, 0 to 100 scale where 0 is no effect and 100 is complete control
[15] = Postemergence, 1000 g ai/ha, 0 to 100 scale (0 no effect, 100 complete control)
[16] = Preemergence, 1000 g ai/ha, 0 to 100 scale (0 no effect, 100 complete control)

| Structure (SMILES) | Plant response rating, Wheat [1, 11] | Plant response rating, Wheat [1, 12] | Plant response rating, Wheat [1, 13] | Plant response rating, Wheat [1, 14] | Plant response rating, Barnyardgrass [2, 11] | Plant response rating, Barnyardgrass [2, 12] | Plant response rating, Barnyardgrass [2, 13] | Plant response rating, Barnyardgrass [2, 14] | Plant response rating, Crabgrass, Large [3, 11] | Plant response rating, Crabgrass, Large [3, 12] | Plant response rating, Crabgrass, Large [3, 13] | Plant response rating, Crabgrass, Large [3, 14] | Plant response rating, Foxtail, Giant [4, 11] | Plant response rating, Foxtail, Giant [4, 12] | Plant response rating, Foxtail, Giant [4, 13] | Plant response rating, Foxtail, Giant [4, 14] | Ducksalad plant response rating [8] | Barnyardgrass plant response rating [9] | Rice plant response rating (rice (Oryza sativa)) | Sedge, Umbrella plant response rating [10] | further results |
| --- | --- | --- | --- | --- | --- | --- | --- | --- | --- | --- | --- | --- | --- | --- | --- | --- | --- | --- | --- | --- | --- |
| Cn1nc(C(F)(F)F)cc1-c1ccccc1Oc1ncc(Br)cn1 [Compound 30] | 0 | 0 | 0 | 0 | 0 | 0 | 0 | 0 | 0 | 10 | 0 | 20 | 0 | 10 | 0 | 10 | 0 | 0 | 0 | 0 | Plant response rating, Morningglory [5, 11]: 0; Plant response rating, Morningglory [5, 12]: 10; Plant response rating, Morningglory [5, 13]: 0; Plant response rating, Morningglory [5, 14]: 0; Plant response rating, Pigweed [6, 11]: 0; Plant response rating, Pigweed [6, 12]: 10; Plant response rating, Pigweed [6, 13]: 0; Plant response rating, Pigweed [6, 14]: 30; Plant response rating, Corn (corn (Zea mays); [11]): 0; Plant response rating, Corn (corn (Zea mays); [12]): 0; Plant response rating, Corn (corn (Zea mays); [13]): 0; Plant response rating, Corn (corn (Zea mays); [14]): 0; Plant response rating, Velvetleaf [7, 11]: 10; Plant response rating, Velvetleaf [7, 12]: 30; Plant response rating, Velvetleaf [7, 13]: 0; Plant response rating, Velvetleaf [7, 14]: 0 |
| Clc1cnc(Oc2ccccc2-c2cc(Cl)cc(Cl)c2)nc1 [Compound 41] | 0 | 0 | 0 | 0 | 0 | 20 | 0 | 0 | 10 | 20 | 0 | 10 | 10 | 20 | 0 | 20 | 0 | 0 | 0 | 0 | Plant response rating, Morningglory [5, 11]: 0; Plant response rating, Morningglory [5, 12]: 10; Plant response rating, Morningglory [5, 13]: 0; Plant response rating, Morningglory [5, 14]: 0; Plant response rating, Pigweed [6, 11]: 40; Plant response rating, Pigweed [6, 12]: 70; Plant response rating, Pigweed [6, 13]: 0; Plant response rating, Pigweed [6, 14]: 0; Plant response rating, Corn (corn (Zea mays); [11]): 0; Plant response rating, Corn (corn (Zea mays); [12]): 10; Plant response rating, Corn (corn (Zea mays); [13]): 0; Plant response rating, Corn (corn (Zea mays); [14]): 0; Plant response rating, Velvetleaf [7, 11]: 10; Plant response rating, Velvetleaf [7, 12]: 30; Plant response rating, Velvetleaf [7, 13]: 0; Plant response rating, Velvetleaf [7, 14]: 0 |
| FC(F)(F)c1ccc(-c2ccccc2Oc2ncc(Cl)cn2)cc1 [Compound 43] | 0 | 0 | 0 | 0 | 0 | 20 | 0 | 20 | 0 | 20 | 0 | 30 | 0 | 20 | 0 | 70 | 0 | 0 | 0 | 0 | Plant response rating, Morningglory [5, 11]: 0; Plant response rating, Morningglory [5, 12]: 20; Plant response rating, Morningglory [5, 13]: 0; Plant response rating, Morningglory [5, 14]: 10; Plant response rating, Pigweed [6, 11]: 30; Plant response rating, Pigweed [6, 12]: 70; Plant response rating, Pigweed [6, 13]: 0; Plant response rating, Pigweed [6, 14]: 0; Plant response rating, Corn (corn (Zea mays); [11]): 0; Plant response rating, Corn (corn (Zea mays); [12]): 10; Plant response rating, Corn (corn (Zea mays); [13]): 0; Plant response rating, Corn (corn (Zea mays); [14]): 0; Plant response rating, Velvetleaf [7, 11]: 20; Plant response rating, Velvetleaf [7, 12]: 70; Plant response rating, Velvetleaf [7, 13]: 0; Plant response rating, Velvetleaf [7, 14]: 10 |
| Cc1ccc(Oc2ncc(Cl)cn2)c(-c2cccc(OC(F)(F)F)c2)c1 [Compound 44] | 0 | 0 | 0 | 0 | 10 | 20 | 0 | 10 | 10 | 20 | 10 | 70 | 0 | 10 | 0 | 10 | 0 | 0 | 0 | 0 | Plant response rating, Morningglory [5, 11]: 20; Plant response rating, Morningglory [5, 12]: 30; Plant response rating, Morningglory [5, 13]: 0; Plant response rating, Morningglory [5, 14]: 0; Plant response rating, Pigweed [6, 11]: 20; Plant response rating, Pigweed [6, 12]: 50; Plant response rating, Pigweed [6, 13]: 0; Plant response rating, Pigweed [6, 14]: 10; Plant response rating, Corn (corn (Zea mays); [11]): 0; Plant response rating, Corn (corn (Zea mays); [12]): 20; Plant response rating, Corn (corn (Zea mays); [13]): 0; Plant response rating, Corn (corn (Zea mays); [14]): 0; Plant response rating, Velvetleaf [7, 11]: 30; Plant response rating, Velvetleaf [7, 12]: 70; Plant response rating, Velvetleaf [7, 13]: 0; Plant response rating, Velvetleaf [7, 14]: 20 |
| Fc1cccc(Oc2ncc(Cl)cn2)c1-c1cccc(OC(F)(F)F)c1 [Compound 46] | – | – | – | – | – | – | – | – | – | – | – | – | – | – | – | – | 60 | 20 | 35 | 50 | Plant response rating, Wheat [1, 15]: 20; Plant response rating, Wheat [1, 16]: 10; Plant response rating, Barnyardgrass [2, 15]: 90; Plant response rating, Barnyardgrass [2, 16]: 80; Plant response rating, Crabgrass, Large [3, 15]: 100; Plant response rating, Crabgrass, Large [3, 16]: 100; Plant response rating, Foxtail, Giant [4, 15]: 100; Plant response rating, Foxtail, Giant [4, 16]: 100; Plant response rating, Morningglory [5, 15]: 70; Plant response rating, Morningglory [5, 16]: 10; Plant response rating, Pigweed [6, 15]: 100; Plant response rating, Pigweed [6, 16]: 100; Plant response rating, Corn (corn (Zea mays); [15]): 20; Plant response rating, Corn (corn (Zea mays); [16]): 0; Plant response rating, Velvetleaf [7, 15]: 100; Plant response rating, Velvetleaf [7, 16]: 20 |
| FC(F)(F)c1cc(-c2ccccc2Oc2ncc(Br)cn2)on1 [Compound 64] | 0 | 10 | 0 | 30 | 90 | 100 | 60 | 100 | 60 | 90 | 100 | 100 | 60 | 80 | 90 | 100 | 95 | 35 | 0 | 80 | Plant response rating, Morningglory [5, 11]: 70; Plant response rating, Morningglory [5, 12]: 100; Plant response rating, Morningglory [5, 13]: 0; Plant response rating, Morningglory [5, 14]: 60; Plant response rating, Pigweed [6, 11]: 100; Plant response rating, Pigweed [6, 12]: 100; Plant response rating, Pigweed [6, 13]: 100; Plant response rating, Pigweed [6, 14]: 100; Plant response rating, Corn (corn (Zea mays); [11]): 20; Plant response rating, Corn (corn (Zea mays); [12]): 30; Plant response rating, Corn (corn (Zea mays); [13]): 0; Plant response rating, Corn (corn (Zea mays); [14]): 20; Plant response rating, Velvetleaf [7, 11]: 100; Plant response rating, Velvetleaf [7, 12]: 100; Plant response rating, Velvetleaf [7, 13]: 80; Plant response rating, Velvetleaf [7, 14]: 90 |
